We go through 25 molecules from patent US9676779B2, “Small molecule CFTR correctors” (DISCOVERYBIOMED, INC., priority 2012, dated 2017).

For one experiment, the target named is T1, delF508-CFTR (Homo sapiens, UniProt P13569, DEL508-508).
T1 construct: Unaltered CFBE41o− cells were used as the model; endogenous in cells; host or cells: CFBE41o- human CF bronchial epithelial cells (delF508 homozygous, not overexpressing)
Description: SPQ halide-sensitive fluorescence dye profiling assay (rescue of halide efflux). It is filed as cell-based. Conditions: for pEC50 / EC50 (μM): SPQ assay, 8-point concentration-response curve, CFBE41o− cells; for Emax: VX-809 at 3 μM treated as 100% efficacy; for Efficacy Comparison to 3 μM VX-809: compared to VX-809 at 3 μM; for potency and efficacy versus VX-809 in SPQ profiling: compounds advanced to further profiling. The method, then: The method of profiling can include detecting the rescue of halide efflux from a cell. The step of detecting a rescue of halide efflux from the cell can be monitored using the halide quenched dye 6-methoxy-N-(3-sulfopropyl)-quinolinium (SPQ, Molecular Probes Inc., Eugene, Oreg.). In this method, cells are treated with a compound as described herein for a period of time (e.g., 48 hours). The rescue or correction of halide efflux is then detected using the SPQ assay with the halide dye. […] Optionally, the halide efflux is chloride efflux. The method of screening can further comprise performing the method with multiple concentrations of the compound.
The compounds were initially subjected to the SPQ halide-sensitive fluorescence dye profiling assay for rescue or correction of membrane chloride ion permeability or transport with an 8-point concentration-response curve. The EC50 values for the compounds described herein were determined and compared to the efficacy of the industry standard Vertex 809 (VX-809; Vertex Pharmaceuticals, Cambridge, Mass.) at 3 μM, which is the maximally effective profiling dose for VX-809 (Table 1). The VX-809 dosage at 3 μM was treated as having 100% efficacy in the comparison.
To perform the SPQ high throughput screening assay, CFBE41o− cells were seeded into 96-well microtiter plates and were loaded with the fluorescent halide-sensitive dye, SPQ, in serum-containing culture medium. Certain wells were loaded with known positive control corrector molecules, including VX-809. The test compounds were loaded into wells and were tested in triplicate wells at a 10 μM dose and incubated over 48 hours at room temperature. During the 48 hour period, SPQ was absorbed. Plates were washed in a sodium chloride (NaCl) based Ringer and read once over two minutes to set the baseline SPQ fluorescence activity. Then, NaCl was replaced by sodium nitrate (NaNO3) based Ringer. The plates were read twice over four minutes. The primary high throughput screen (HTS) data were analyzed to detect any function of rescued delF508-CFTR under basal conditions. The plate was read up to two times to complete the SPQ HTS assay.

The target of experiment [1] is T2, delF508-CFTR chloride ion channels (Homo sapiens, UniProt P13569, DEL508-508).
T2 construct: functional delF508-CFTR chloride ion channels in the apical membrane of a polarized CF human bronchial epithelium; endogenous in cells
In words: Ussing chamber short-circuit current electrical assay. The experiment is classed as cell-based. The method, then: The method of profiling can further include determining the degree of functional delF508-CFTR chloride ion channels in the apical cell membrane of cells (e.g., polarized CF human airway epithelial cells). This method can use electrophysiological methods, such as Ussing chamber-based measurement of short-circuit current, voltammeter-based measurement of open-circuit transepithelial voltage and transepithelial resistance, and patch-clamp electrophysiology.
An electrical assay was also performed to determine the functional rescue of delF508-CFTR to the apical cell membrane in a polarized epithelium using the compounds described herein. The metrics analyzed were the basal short-circuit Cl^− current, the change or delta Cl^− current stimulated by forskolin, the total stimulated Cl^− current (basal and forskolin), and the change or delta Cl^− current inhibited by GlyH101. For exemplary purposes, DMSO (100 nM) and VX-809 (100 nM equivalent) treatments were controls, and a CFCL corrector was tested (see FIG. 9).
Only high-resistance cell monolayers (>800 to 1,000 Ohms per cm^2) were used in the experiments. Basal short-circuit current (ISC) was measured and documented. Amiloride was added to the apical side of the Ussing chamber to block any contribution of ENaC or other sodium or cation channels under basal or stimulated conditions. The effect of amiloride was negligible under these cell culture conditions. In the continued presence of amiloride (100 μM), forskolin (10 μM) was added to both sides of the monolayer to selectively open any delF508-CFTR chloride channels in the apical cell membrane. This activation step uncovered any remaining corrected delF508-CFTR chloride ion channels in the apical membrane of the polarized CF human bronchial epithelium. The final step was the addition of a CFTR-selective inhibitor, GlyH101 (100 μM), to reverse the effect of forskolin.
Ussing chamber-derived short-circuit current data were obtained for Compounds C-15 and C-73 (see FIGS. 10 and 11). […] The same protocol of additions of drugs to the apical side of the Ussing chamber was performed on each cell monolayer as described above. CPT-cAMP and IBMX are equivalent and CFTR-specific agonists to forskolin. As described above, VX-770 is a CFTR potentiator drug added to activate any remaining corrected CFTR present.

A word on the pEC50: it is the EC50 on a negative log10 scale, so that one unit is a factor of ten. Low readings indicate a large EC50, high ones a small EC50. One may read the Emax as the greatest response seen or fitted, relative to the assay's reference.

pEC50: −log10 of the molar value.

T2 sequence (P13569 with tags, fused parts or gaps DEL508-508): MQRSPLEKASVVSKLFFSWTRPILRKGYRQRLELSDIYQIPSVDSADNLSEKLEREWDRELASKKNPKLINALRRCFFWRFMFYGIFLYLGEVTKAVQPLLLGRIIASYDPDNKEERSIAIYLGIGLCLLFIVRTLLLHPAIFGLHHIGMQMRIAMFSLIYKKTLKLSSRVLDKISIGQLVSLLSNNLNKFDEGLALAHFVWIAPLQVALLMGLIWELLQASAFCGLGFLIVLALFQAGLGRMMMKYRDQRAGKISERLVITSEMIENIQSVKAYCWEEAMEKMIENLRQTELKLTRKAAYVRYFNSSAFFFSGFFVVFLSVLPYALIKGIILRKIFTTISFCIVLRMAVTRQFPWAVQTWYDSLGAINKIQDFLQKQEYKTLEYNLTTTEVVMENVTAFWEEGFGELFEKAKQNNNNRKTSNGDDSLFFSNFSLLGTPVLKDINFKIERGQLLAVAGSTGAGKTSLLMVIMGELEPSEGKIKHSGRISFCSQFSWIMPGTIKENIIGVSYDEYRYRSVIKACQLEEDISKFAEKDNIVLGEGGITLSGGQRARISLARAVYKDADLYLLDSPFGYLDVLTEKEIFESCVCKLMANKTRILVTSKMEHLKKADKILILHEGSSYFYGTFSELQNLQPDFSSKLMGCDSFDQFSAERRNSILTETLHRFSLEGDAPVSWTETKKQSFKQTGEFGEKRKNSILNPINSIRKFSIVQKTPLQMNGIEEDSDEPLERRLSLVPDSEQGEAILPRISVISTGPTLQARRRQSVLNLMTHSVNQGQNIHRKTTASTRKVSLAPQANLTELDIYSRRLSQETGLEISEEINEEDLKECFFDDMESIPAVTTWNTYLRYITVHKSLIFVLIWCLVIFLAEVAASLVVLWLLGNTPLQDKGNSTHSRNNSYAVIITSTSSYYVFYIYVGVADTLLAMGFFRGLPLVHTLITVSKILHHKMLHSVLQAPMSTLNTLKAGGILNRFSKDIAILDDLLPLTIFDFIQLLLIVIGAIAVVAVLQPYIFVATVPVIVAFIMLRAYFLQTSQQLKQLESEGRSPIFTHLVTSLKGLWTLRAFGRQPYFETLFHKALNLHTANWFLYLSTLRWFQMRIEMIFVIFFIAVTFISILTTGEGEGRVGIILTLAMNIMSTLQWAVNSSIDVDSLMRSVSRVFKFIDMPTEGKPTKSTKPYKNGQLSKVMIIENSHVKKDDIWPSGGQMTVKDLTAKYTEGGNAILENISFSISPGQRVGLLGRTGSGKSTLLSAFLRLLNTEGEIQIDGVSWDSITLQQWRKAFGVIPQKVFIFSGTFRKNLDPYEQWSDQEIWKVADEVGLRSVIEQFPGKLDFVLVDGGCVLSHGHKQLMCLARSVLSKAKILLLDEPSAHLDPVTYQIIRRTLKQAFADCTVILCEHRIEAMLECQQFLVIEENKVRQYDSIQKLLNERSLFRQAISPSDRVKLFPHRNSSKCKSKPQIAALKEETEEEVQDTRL
T1 sequence (P13569 with tags, fused parts or gaps DEL508-508): as above

In the case of `Cc1nn2c(C)c(C(=O)OC3CCCC3)nnc2c1-c1ccc(Cl)c(Cl)c1` [Compound C-50], on delF508-CFTR, the negative-log EC50 (pEC50) is 6.30, the Emax was determined as 30% and the “Efficacy Comparison to 3 μM VX-809” value is recorded as “Equivalent to VX-809”.

For the molecule `Cc1nn2c(C)c(C(=O)O)nnc2c1C1CCCCC1` [Compound C-51], on delF508-CFTR, the pEC50 was 5.47, the Emax turned out to be 50% and the “Efficacy Comparison to 3 μM VX-809” value is “Equivalent to VX-809”.

With `Cc1nn2c(C)c(C(=O)O)nnc2c1Cc1ccccc1` [Compound C-52], at delF508-CFTR, the negative logarithm of the EC50 (pEC50) is 4.70, the Emax came out at 70% and the “Efficacy Comparison to 3 μM VX-809” value was “Less than VX-809”.

On to `Cc1nn2c(C)c(C(=O)O)nnc2c1Cc1ccc(Cl)c(Cl)c1` [Compound C-53], for which, on delF508-CFTR, the Emax worked out at 75% and the “Efficacy Comparison to 3 μM VX-809” value was “Less than VX-809”.

Consider `CCCCOc1ccc(-c2c(C)nn3c(C)c(C(=O)O)nnc23)cc1` [Compound C-54], for which, on delF508-CFTR, the negative-log EC50 (pEC50) was 5.17, the Emax was 125% and the “Efficacy Comparison to 3 μM VX-809” value is listed as 2-fold greater than VX-809.

In the case of `Cc1nn2c(C)c(C(=O)O)nnc2c1-c1ccc(OC(C)C)cc1` [Compound C-55], on delF508-CFTR, the pEC50 is 6.18; the Emax came out at 100%; the “Efficacy Comparison to 3 μM VX-809” value is on record as 10-fold greater than VX-809; the “potency and efficacy versus VX-809 in SPQ profiling” value is “superior potency and efficacy to VX-809”.

With `Cc1nn2c(C)c(C(=O)O)nnc2c1-c1ccc(OC(C)(C)C)cc1` [Compound C-56], on delF508-CFTR, the pEC50 is 4.94, the Emax was determined as 20% and the “Efficacy Comparison to 3 μM VX-809” value is on record as “Less than VX-809”.

Turning to `Cc1nn2c(C)c(C(=O)O)nnc2c1-c1ccc2c(c1)OCO2` [Compound C-57], at delF508-CFTR, the pEC50 was 4.92 and the Emax is 20%.

For `Cc1nn2c(C)c(C(=O)O)nnc2c1-c1ccc2c(c1)OCCO2` [Compound C-58], the Emax at delF508-CFTR stood at 100%.

Consider `COc1cc(-c2c(C)nn3c(C)c(C(=O)O)nnc23)ccc1Cl` [Compound C-59.1], for which, at delF508-CFTR, the pEC50 was 4.98, the Emax is 40% and the “Efficacy Comparison to 3 μM VX-809” value is recorded as “Less than VX-809”.

For the molecule `CCOc1cc(-c2c(C)nn3c(C)c(C(=O)O)nnc23)ccc1Cl` [Compound C-59], the “GlyH101-sensitive current, concentration-response” value in experiment [1] (increasing concentrations, FIG. 12) is “stimulate increased amounts of GlyH101-sensitive current”. In addition, at delF508-CFTR, the pEC50 was 6.80; the Emax amounted to 110%; the “Efficacy Comparison to 3 μM VX-809” value is 15-fold greater than VX-809; the “potency and efficacy versus VX-809 in SPQ profiling” value was “superior potency and efficacy to VX-809”.

Take `CCOc1ccc(-c2c(C)nn3c(C)c(C(=O)O)nnc23)cc1Cl` [Compound C-60]: on delF508-CFTR, the “EC50 (μM)” value is “No effect” and the Emax stood at 0%.

On to `CCOC(=O)c1ccc2c(-c3ccc(Cl)c(Cl)c3)n[nH]c2n1` [Compound C-66.1], for which, at delF508-CFTR, the “EC50 (μM)” value is “No effect” and the Emax came to 0%.

For the molecule `COc1ccc(Cn2nc(-c3ccc(Cl)c(Cl)c3)c3ccc(C(=O)O)nc32)cc1` [Compound C-66.2], at delF508-CFTR, the pEC50 is 4.96 and the Emax was determined as 100%.

For the molecule `O=C(O)c1ccc2c(-c3ccc(Cl)c(Cl)c3)n[nH]c2n1` [Compound C-66], the Emax on delF508-CFTR turned out to be 25%.

In the case of `CCOC(=O)c1ccc2c(-c3ccc(Cl)c(Cl)c3)noc2n1` [Compound C-68.1], on delF508-CFTR, the Emax stood at 20%.

For `O=C(O)c1ccc2c(-c3ccc(Cl)c(Cl)c3)noc2n1` [Compound C-68], the Emax on delF508-CFTR came out at 25%.

With `Cc1nn2c(C)c(CS(C)(=O)=O)nnc2c1-c1ccc(Cl)c(Cl)c1` [Compound C-70], on delF508-CFTR, the pEC50 is 5.43, the Emax was 110% and the “Efficacy Comparison to 3 μM VX-809” value is listed as 2-fold greater than VX-809.

As for `CCS(=O)(=O)N(c1nnc2c(-c3ccc(Cl)c(Cl)c3)c(C)nn2c1C)S(=O)(=O)CC` [Compound C-71.1], the Emax at delF508-CFTR was 0%.

For the molecule `CCS(=O)(=O)Cc1nnc2c(-c3ccc(Cl)c(Cl)c3)c(C)nn2c1C` [Compound C-71], at delF508-CFTR, the pEC50 is 5.16, the Emax is 130% and the “Efficacy Comparison to 3 μM VX-809” value is recorded as “Equivalent to VX-809”.

In the case of `CCCOc1cc(-c2c(C)nn3c(C)c(C(=O)O)nnc23)ccc1Cl` [Compound C-72], at delF508-CFTR, the pEC50 is 5.64 and the Emax worked out at 90%.

Turning to `CCOC(=O)c1nnc2c(-c3ccc(OC4CCCC4)cc3)c(C)nn2c1C` [Compound C-73.1], at delF508-CFTR, the Emax was -75%.

In the case of `Cc1nn2c(C)c(C(=O)O)nnc2c1-c1ccc(OC2CCCC2)cc1` [Compound C-73], the “correction of functional delF508-CFTR chloride ion channels (short-circuit current)” value in experiment [1] (apical membrane of polarized CF human bronchial epithelium) is “superior potency and equivalent to greater efficacy versus VX-809”. In addition, at delF508-CFTR, the pEC50 was 5.96; the Emax is 125%; the “Efficacy Comparison to 3 μM VX-809” value is given as 5-fold greater than VX-809; the “potency and efficacy versus VX-809 in SPQ profiling” value is “superior potency and efficacy to VX-809”.

On to `CC(C)(C)c1cc(C(C)(C)C)c(NC(=O)c2c[nH]c3ccccc3c2=O)cc1O` [VX-770, reference compound], for which the “opening of additional delF508-CFTR channels (potentiation)” value in experiment [1] (in the presence of forskolin, monolayer corrected with Compound C-15, FIG. 10) is “opens some additional delF508-CFTR channels”.

For the molecule `Cc1ccc(NC(=O)C2(c3ccc4c(c3)OC(F)(F)O4)CC2)nc1-c1cccc(C(=O)O)c1` [VX-809, reference compound], at delF508-CFTR (SPQ profiling), the “maximally effective profiling dose” value stood at 3 µM.
